Consider 1 molecule from patent US8633204B2 (Pfizer Inc., priority 2006, dated 2014).

The subject of this experiment is phosphorylation of AKT on S473 in PC3 tumors. In words: In vivo target modulation study, PC3 tumors. On the set-up: species or system mouse. The method, then:
In vivo target modulation studies to determine the effect of Compound 152 treatment on the phosphorylation of AKT on S473 by ELISA and S6 on S235/S236 by IHC were performed. Resected tumors were frozen on dry ice and pulverized using the FAST PREP instrument (Qbiogene). Briefly, frozen tumors were placed in Fast Prep matrix tubes, cold lysis buffer [20 mM HEPES (pH 7.5), 150 mM NaCl, 1.0 mM sodium EDTA, 1% Triton X-100, 2.5 mM sodium pyrophosphate, 1 mM sodium orthovanadate, 1 μg/ml leupeptin, and 1 mM PMSF] was added and samples were centrifuged for 5 sec, mixed and process repeated two more times. Samples were centrifuged in a cold refrigerated Eppendorf centrifuge at 14,000 RPM for 20 min. Supernatant was collected and total and phosphoAKT (S473) protein levels determined by ELISA. The extent of phosphorylation in tumors resected from treated animals was compared with that in tumors resected from vehicle-treated animals at the same time point. Plasma samples, obtained by centrifuging individual blood samples at 3000×g for 5 min at 4° C. in an Eppendorf 5417R centrifuge, were stored at −80° C. until they could be analyzed for drug concentration. Briefly, plasma samples (50 μl) or Compound 152 standards in mouse plasma were mixed with acetonitrile […]) and injected onto a LC/MS/MS system where separation occurred on a C-18 SB phenyl (5 μM, 2.1×50 mm, Agilent) reverse-phase high-performance liquid chromatography column. The amount of inhibitor and the internal standard (0.5 μM buspirone) in each mouse plasma sample was quantified based on standard curves generated using known amounts of compound. […] Time course and dose response of in vivo target modulation and plasma inhibitor concentrations were determined post last dose at the end of the efficacy study described above and data are summarized in Table 4.

For `COc1ccc(-c2cc3c(C)nc(N)nc3n([C@H]3CC[C@H](O)CC3)c2=O)cn1` [Compound 152, 2-amino-8-(trans-4-hydroxycyclohexyl)-6-(6-methoxypyridin-3-yl)-4-methylpyrido[2,3-d]pyrimidin-7(8H)-one], the “p-Akt/Akt(%)” value amounted to 42 ± 14% (PC3, 0.25 mg/kg, 3 h post last dose); 82 ± 18% (PC3, 0.25 mg/kg, 7 h post last dose); 137 ± 23% (PC3, 0.25 mg/kg, 24 h post last dose); 32 ± 4% (PC3, 0.5 mg/kg, 3 h post last dose); 38 ± 5% (PC3, 0.5 mg/kg, 7 h post last dose); 107 ± 6% (PC3, 0.5 mg/kg, 24 h post last dose). Besides, the “p-Akt/Akt(%)” value is reported as 23 ± 10% (PC3, 1 mg/kg, 3 h post last dose); 27 ± 9% (PC3, 1 mg/kg, 7 h post last dose); 113 ± 15% (PC3, 1 mg/kg, 24 h post last dose); 21 ± 5% (PC3, 2 mg/kg, 3 h post last dose); 17 ± 7% (PC3, 2 mg/kg, 7 h post last dose); 78 ± 9% (PC3, 2 mg/kg, 24 h post last dose). Where the note is “PC3 tumors in vivo”, the “inhibition of pAKT at S473” value is recorded as “dose dependent inhibition”.
